One test has as its target T1, CDK1:Cyclin-B (Homo sapiens, UniProt P06493).
T1 construct: purchased New England Biolabs, Beverly, Mass; 6020; host or cells: insect cells
The test can be described thus: CDK1 Screening Assay. It is filed as biochemical. Particulars: 33P-γ-ATP incorporation, 10 μM ATP. In outline: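 Human CDK1/cyclin B co-expressed in insect cells (30 ng/well) in 50 mM Tris pH 8, 10 mM MgCl2, with 10 μM ATP, 33P-γ-ATP and 0.025 μM biotinylated histone H1 peptide (reaction-mix levels); 1% DMSO final. 1 h at 30° C. 33P incorporation into streptavidin-captured peptide by scintillation counting.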

Another test addresses T2, VEGF-R2 (Rattus norvegicus, UniProt O08775).
T2 construct: polyhistidine (N)
The test is described as follows: VEGF-R2 Screening Assay. It is filed as biochemical. Particulars: 33P-γ-ATP incorporation, 10 μM ATP. In outline:
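The N-terminally His-tagged rat VEGF-R2 kinase domain (aa 786-1343), diluted in 50 mM Tris-HCl pH 8.0 with 0.1% BSA, phosphorylated a biotinylated histone-H1 peptide with 33P-γ-ATP on Flashplates for 1 h at 30 °C in 1% DMSO. After washes with EDTA/PBS, immobilized 33P was counted by scintillation.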

The target of the next test is T3, HER2 (Homo sapiens, UniProt P04626).
T3 construct: polyhistidine (N)
T3 sequence (P04626 676-1255 limits assumed): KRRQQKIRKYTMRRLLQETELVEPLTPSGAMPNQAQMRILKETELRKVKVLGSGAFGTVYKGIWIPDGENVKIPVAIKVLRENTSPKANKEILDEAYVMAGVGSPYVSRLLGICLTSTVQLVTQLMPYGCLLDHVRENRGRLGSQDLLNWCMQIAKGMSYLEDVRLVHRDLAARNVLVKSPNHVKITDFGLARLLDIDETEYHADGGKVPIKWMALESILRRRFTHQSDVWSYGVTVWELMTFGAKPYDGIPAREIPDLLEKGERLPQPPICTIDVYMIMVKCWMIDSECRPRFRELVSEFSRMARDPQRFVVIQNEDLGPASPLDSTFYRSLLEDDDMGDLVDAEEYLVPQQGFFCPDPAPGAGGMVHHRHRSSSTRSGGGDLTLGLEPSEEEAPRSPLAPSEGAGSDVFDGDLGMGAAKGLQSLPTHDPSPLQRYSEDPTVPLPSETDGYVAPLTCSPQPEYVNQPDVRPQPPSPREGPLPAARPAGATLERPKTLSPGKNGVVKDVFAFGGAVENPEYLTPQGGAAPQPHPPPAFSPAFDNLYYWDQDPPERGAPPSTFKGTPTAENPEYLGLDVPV
The test is described as follows: HER2 kinase Screening Assay. Particulars: 33P-γ-ATP incorporation, 10 μM ATP. The class given is biochemical.

In the next test the target is T4, Aurora-A (Mus musculus, UniProt P97477).
T4 construct: made in house; host or cells: sf9 insect cells
T4 sequence (P97477 1-395): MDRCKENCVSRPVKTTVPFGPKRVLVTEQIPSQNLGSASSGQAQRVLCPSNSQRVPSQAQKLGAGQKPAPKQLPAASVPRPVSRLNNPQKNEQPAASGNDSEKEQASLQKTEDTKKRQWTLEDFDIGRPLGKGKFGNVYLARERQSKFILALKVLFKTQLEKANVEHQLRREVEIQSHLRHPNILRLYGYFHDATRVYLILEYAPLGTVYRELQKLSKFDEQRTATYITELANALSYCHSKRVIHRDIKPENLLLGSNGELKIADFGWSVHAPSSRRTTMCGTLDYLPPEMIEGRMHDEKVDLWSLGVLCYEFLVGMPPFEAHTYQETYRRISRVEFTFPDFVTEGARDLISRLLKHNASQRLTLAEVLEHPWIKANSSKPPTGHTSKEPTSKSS
The test can be described thus: Aurora-A Screening Assay. The class given is biochemical, murine. Particulars: 33P-γ-ATP incorporation, 10 μM ATP.

A further test concerns the target T5, RET (Homo sapiens, UniProt P07949).
T5 construct: the RET cytoplasmic domain consisting of the last 492 amino acids of the intracellular domain of the RET tyrosine kinase; histidine tag (N); made in house; host or cells: Hi5 insect cells
T5 sequence (P07949 658-1114 limits assumed): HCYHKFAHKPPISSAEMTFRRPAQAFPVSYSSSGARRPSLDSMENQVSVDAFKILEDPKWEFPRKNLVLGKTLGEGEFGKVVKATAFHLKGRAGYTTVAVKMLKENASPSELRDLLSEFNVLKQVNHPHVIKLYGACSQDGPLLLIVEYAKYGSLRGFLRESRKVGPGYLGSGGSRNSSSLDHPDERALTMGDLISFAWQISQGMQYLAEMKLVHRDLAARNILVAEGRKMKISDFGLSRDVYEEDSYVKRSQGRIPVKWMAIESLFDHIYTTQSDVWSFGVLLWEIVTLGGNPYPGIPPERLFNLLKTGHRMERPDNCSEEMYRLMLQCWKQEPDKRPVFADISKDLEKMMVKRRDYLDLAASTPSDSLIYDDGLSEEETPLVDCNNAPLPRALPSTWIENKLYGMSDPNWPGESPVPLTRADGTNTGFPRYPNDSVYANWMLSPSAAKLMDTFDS
The test can be described thus: RET Kinase Screening Assay. It is filed as biochemical. Particulars: 33P-γ-ATP incorporation, 10 μM ATP.

Test [1] relates to HeLa cervical adenocarcinoma. The test can be described thus: Inhibition of cell proliferation (14C-thymidine incorporation), HeLa.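 Also: HeLa cells in 96-well scintillating plates, compound for 24 h then 24 h more with 14C-thymidine, counting label built into new DNA against DMSO-only control wells.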 Particulars: Homo sapiens. It is filed as cell-based. A general note: Incorporation of labelled thymidine or its analogues reports DNA synthesis.
The next test concerns HCT-116 colon carcinoma. The test can be described thus: Inhibition of cell proliferation (14C-thymidine incorporation), HCT-116. The class given is cell-based. Particulars: Homo sapiens, HCT-116, HCT116. In outline:
(§1)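 Cells (3000-8000/well) grown 24 h at 37° C, 5% CO2, then given compound in DMSO for 24 h before adding methyl 14C-thymidine (0.2 uCi/well) for a further 24 h with drug. After PBS washes, incorporation into DNA counted by scintillation.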

The next test concerns A375 malignant melanoma. The test can be described thus: Inhibition of cell proliferation (14C-thymidine incorporation), A375. The class given is cell-based, human. Particulars: Homo sapiens, A-375. In outline: as §1

Data on seven molecules can be found in patent US7855205B2, “Pyrimidinyl substituted fused-pyrrolyl compounds useful in treating kinase disorders” (Janssen Pharmaceutica NV, priority 2004, dated 2010).

Molecules are shown by their SMILES.

T1 sequence (P06493 whole entry): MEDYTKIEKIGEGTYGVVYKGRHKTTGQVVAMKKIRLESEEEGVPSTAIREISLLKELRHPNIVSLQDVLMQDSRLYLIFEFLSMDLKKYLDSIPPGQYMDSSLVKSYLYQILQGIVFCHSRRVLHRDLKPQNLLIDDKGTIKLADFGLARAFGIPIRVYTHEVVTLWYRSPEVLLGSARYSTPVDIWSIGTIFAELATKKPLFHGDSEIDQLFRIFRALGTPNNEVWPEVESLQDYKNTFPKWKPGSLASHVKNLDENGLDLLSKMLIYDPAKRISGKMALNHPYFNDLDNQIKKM
T1 sequence (P14635 whole entry partner): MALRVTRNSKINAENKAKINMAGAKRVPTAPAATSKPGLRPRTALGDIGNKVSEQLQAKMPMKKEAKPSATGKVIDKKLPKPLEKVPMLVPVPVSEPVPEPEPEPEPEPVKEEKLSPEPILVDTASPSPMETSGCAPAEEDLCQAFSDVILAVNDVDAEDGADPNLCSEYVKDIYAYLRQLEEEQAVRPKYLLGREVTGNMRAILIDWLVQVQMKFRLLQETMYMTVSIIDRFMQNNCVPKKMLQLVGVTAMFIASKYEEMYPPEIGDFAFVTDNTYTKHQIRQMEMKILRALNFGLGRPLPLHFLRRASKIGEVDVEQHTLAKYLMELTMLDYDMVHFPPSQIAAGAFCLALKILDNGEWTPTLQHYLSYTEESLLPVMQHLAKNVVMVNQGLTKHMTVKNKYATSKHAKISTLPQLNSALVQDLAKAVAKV
T2 sequence (O08775 786-1343): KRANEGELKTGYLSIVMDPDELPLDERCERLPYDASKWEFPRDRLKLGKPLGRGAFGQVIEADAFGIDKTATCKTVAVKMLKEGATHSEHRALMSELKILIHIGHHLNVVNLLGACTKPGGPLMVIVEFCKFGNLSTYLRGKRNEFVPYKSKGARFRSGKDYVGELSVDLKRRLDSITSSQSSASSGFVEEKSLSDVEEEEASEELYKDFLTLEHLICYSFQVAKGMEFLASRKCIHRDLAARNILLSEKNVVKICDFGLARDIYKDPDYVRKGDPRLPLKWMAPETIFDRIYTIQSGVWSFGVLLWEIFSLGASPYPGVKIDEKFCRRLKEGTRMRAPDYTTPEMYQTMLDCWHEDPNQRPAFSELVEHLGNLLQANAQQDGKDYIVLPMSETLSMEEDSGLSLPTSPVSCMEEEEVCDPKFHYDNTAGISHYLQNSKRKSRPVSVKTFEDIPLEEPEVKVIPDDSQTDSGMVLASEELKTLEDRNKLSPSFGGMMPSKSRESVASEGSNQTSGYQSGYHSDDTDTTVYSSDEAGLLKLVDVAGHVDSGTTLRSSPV

As for `c1cnc2[nH]cc(-c3ccnc(Nc4ccc(CCN5CCNCC5)cc4)n3)c2c1` [Cpd 20, [4-(2-piperazin-1-yl-ethyl)-phenyl]-[4-(1H-pyrrolo[2,3-b]pyridin-3-yl)-pyrimidin-2-yl]-amine], the IC50 stood at 0.134 µM at CDK1:Cyclin-B; 0.186 µM against VEGF-R2; 0.025 µM against HER2; 0.253 µM against Aurora-A; 0.892 µM at RET; 0.14 µM in test [1]. For the same molecule, the values for the concentration for half-maximal inhibition (IC50) with HCT-116 colon carcinoma and in the test on A375 malignant melanoma were 0.037 µM and 0.11 µM, respectively.

Consider `OCCOc1ccc(Nc2nccc(-c3c[nH]c4ncccc34)n2)cc1` [Cpd 4, 2-{4-[4-(1H-Pyrrolo[2,3-b]pyridin-3-yl)-pyrimidin-2-ylamino]-phenoxy}-ethanol], for which the IC50 on CDK1:Cyclin-B worked out at 0.021 µM; against VEGF-R2, 0.01 µM; at HER2 it was 0.01 µM; against Aurora-A, 0.173 µM; on RET, 1.41 µM; in test [1], 0.062 µM. Moreover, the IC50 in the test on HCT-116 colon carcinoma was 0.062 µM; in the test on A375 malignant melanoma, 0.061 µM.

As to `c1ccc(Nc2nccc(-c3c[nH]c4ncccc34)n2)cc1` [Cpd 3, Phenyl-[4-(1H-pyrrolo[2,3-b]pyridin-3-yl)-pyrimidin-2-yl]-amine], the half-inhibitory concentration (IC50) against CDK1:Cyclin-B was 0.054 µM; at VEGF-R2, 0.213 µM; at HER2 it was 0.032 µM; against Aurora-A, 0.159 µM; at RET it was 1 µM; in test [1], 0.382 µM. The IC50 was determined as 0.26 µM in the test with HCT-116 colon carcinoma and 0.468 µM with A375 malignant melanoma.

On to `c1cnc2[nH]cc(-c3ccnc(Nc4ccc(CCN5CCOCC5)cc4)n3)c2c1` [Cpd 22, [4-(2-Morpholin-4-yl-ethyl)-phenyl]-[4-(1H-pyrrolo[2,3-b]pyridin-3-yl)-pyrimidin-2-yl]-amine], for which the 50% inhibitory concentration (IC50) worked out at 0.074 µM against CDK1:Cyclin-B; 0.084 µM at VEGF-R2; 0.011 µM on HER2; 0.173 µM against Aurora-A; 0.587 µM against RET; 0.035 µM in test [1]. For the same molecule, the IC50 turned out to be 0.018 µM with HCT-116 colon carcinoma and 0.055 µM in the test on A375 malignant melanoma.

Turning to `CNCCc1ccc(Nc2nccc(-c3c[nH]c4ncccc34)n2)cc1` [Cpd 25, [4-(2-Methylamino-ethyl)-phenyl]-[4-(1H-pyrrolo[2,3-b]pyridin-3-yl)-pyrimidin-2-yl]-amine], the IC50 was found to be 0.051 µM against CDK1:Cyclin-B; 0.093 µM at VEGF-R2; 0.012 µM against HER2; 0.182 µM at Aurora-A; 0.062 µM in test [1]; 0.068 µM in the test on HCT-116 colon carcinoma. Moreover, in the test with A375 malignant melanoma, it took 0.04 µM to reach half-maximal inhibition (IC50).

Turning to `COc1cc(Nc2nccc(-c3c[nH]c4ncccc34)n2)cc(OC)c1OC` [Cpd 2, [4-(1H-Pyrrolo[2,3-b]pyridin-3-yl)-pyrimidin-2-yl]-(3,4,5-trimethoxy-phenyl)-amine], the IC50 amounted to 0.169 µM at CDK1:Cyclin-B; 0.046 µM on VEGF-R2; 0.206 µM on HER2; 0.063 µM against Aurora-A; 0.33 µM in test [1]; 0.56 µM in the test on HCT-116 colon carcinoma. In addition, in the test with A375 malignant melanoma, it took 0.75 µM to reach half-maximal inhibition (IC50).

Turning to `OCCc1ccc(Nc2nccc(-c3c[nH]c4ncccc34)n2)cc1` [Cpd 1, 2-{4-[4-(1H-Pyrrolo[2,3-b]pyridin-3-yl)-pyrimidin-2-ylamino]-phenyl}-ethanol], the IC50 at CDK1:Cyclin-B amounted to 0.019 µM; on VEGF-R2, 0.087 µM; at HER2, 0.008 µM; against Aurora-A, 0.159 µM; against RET, 0.337 µM; in test [1] it was 0.056 µM. For the same molecule, the IC50 in the test on HCT-116 colon carcinoma came out at 0.022 µM; with A375 malignant melanoma, 0.066 µM.

A word on the IC50: it is the midpoint of a concentration-inhibition curve.
